Patent publication US20100249402A1, “NOVEL BENZAMIDINE DERIVATIVES, PROCESS FOR THE PREPARATION THEREOF AND PHARMACEUTICAL COMPOSITION FOR PREVENTING OR TREATING OSTEPOROSIS COMPRISING THE SAME” (DONG WHA PHARMACEUTICAL CO. LTD., priority 2007, published 2010)
Where two headings read alike, the source gives them in different places.

Legend:
[1] = system: osteoclast differentiation; assay: Inhibitory effects on osteoclast differentiation (bone marrow cell/osteoblast co-culture, TRAP staining); type: cell-based, mice; conditions: Mus musculus, Osteoclast, 168 h, read-out: Inhibition of osteoclast differentiation (%)
Method: The effect of the benzamidine derivative of the present invention on osteoclast formation and differentiation process was evaluated via co-culture with an osteoblast.
Tibia was aseptically ectomized from 6 to 8-week-old male ddY mice to harvest bone marrow cells by using a syringe (21G, Korea Green Cross). The bone marrow cells were suspended in 5 mL of an α-MEM medium (Gibco BRL Co., supplemented with sodium bicarbonate (2.0 g/L), streptomycin (100 mg/L) and penicillin ([…]), filtered and then sterilized). The harvested cells were centrifuged at 600×g for 5 minutes to collect the whole quantity. To remove the red blood cells in the bone marrow cells, 3 mL of Tris HCl (0.83% NH4Cl, pH 7.5) was added and well mixed. After centrifugation, the numbers of the eukaryotic cells in the harvested bone marrow cells were counted, and then immediately used for a co-culture system.
The progenitor bone and the parietal bone were aseptically ectomized from 1 to 2-day-old neonatal ICR mice, washed with a phosphate butter solution (PBS), and treated with a mixed enzyme solution (0.2% collagenase and 0.1% dispase) six to seven times (10, 10, 10, 20, 20 and 20 min), and then 3 to 6 groups of the cells, in which a large volume of cells having osteoblastic characteristics were contained, were intensively collected, and washed with medium (serum-free α-MEM). The washed cells were cultured in the α-MEM medium containing 10% FBS for 2 to 3 days. After sub-culturing, the collected cells were used for this experiment, and diluted to a concentration of 1×10^6 cells/mL for storage at −70° C.
The benzamidine derivative of the present invention was dissolved in a sterile distilled water or ethanol to be diluted to a desired concentration. The final volume of the sample added to the cell culture medium was set at a ratio of 1:1000.
The bone marrow cells prepared in the above 1-1 and the osteoblast were co-cultured. Both the bone marrow cells (25,000 cells/cm^2) and the osteoblast (10,000 cells/cm^2) were plated in a 96-well plate using α-MEM medium containing FBS, and then cultured with the samples to be tested for 7 days. Differentiation factors, such as dexamethasone (10^−7 M) and vitamin D (10^−8 M), were also co-added to the medium from the first day of cultivation. The medium was changed with a fresh media containing a mixture of the samples and the differentiation factors every 2 to 3 days.
TRAP was used as a marker to measure the matured osteoclast in consideration of its characteristics showing a positive reaction to a TRAP staining solution.
The TRAP staining solution was prepared in such the manner that 5 mg of naphthol AS-MS phosphate (sigma N-4875) as a substrate and 25 mg of a coloring agent (Fast Red Violet LB salt) were dissolved in N,N-dimethylformamide (about 0.5 mL). 50 ml of a 0.1 N […] buffer solution containing 50 mM tartaric acid (pH 5.0) was added thereto, and the mixture was stored in a refrigerator prior to use as a staining solution.
After culturing the cells for 7 days, the medium was removed from the wells, the cells were once washed with PBS, and then fixed with PBS containing 10% formalin for 2 to 5 min. The cells were fixed again in a mixed solution of ethanol and acetone (1/1) for about 1 min, and dried off. The cells were further treated by the TRAP staining solution for 15 minutes, and washed with water and dried off. The osteoclasts with 3 or more nuclei showing a TRAP-positive reaction were counted under a microscopic examination. Each of tests was confirmed at least three times. The inhibitory effect on osteoclast differentiation of each experimental group, relative to negative controls, was expressed as a percentage (%).

MC3T3-E1 = assay: Cytotoxicity test (MTT), MC3T3-E1; type: cell-based; conditions: 10^−6 M, cultured for 72 hrs, in comparison with the control group
Method: (§1) The cytotoxic effect of the benzamidine derivative of the present invention was evaluated by carrying out the experiment described below.
(§2) The test substance was diluted in an appropriate solvent at a concentration of 10^−2 M. This substance was diluted in an appropriate culture medium for the cells used in the cytotoxicity test to a concentration of 10^−6M, and loaded into a 96-well plate in 100 μl per well. The cell lines to be used in the cytotoxicity test were plated on a 96-well plate in a dose of 1.0×10^4 cell/100 μl per well, and cultured for 72 hrs. 25 μl of MTT[3-(4,5-dimethyl-2-thiazolyl)-2,5-diphenyl-2H-tetrazolium bromide] dissolved in PBS (2 mg/mL) were added before 4 hrs of the end of culture. After completion of the reaction, the plates were centrifuged, the medium was discarded and 100 μl of DMSO was added to dissolve formazan. Finally, the absorbance of the developed plates was measured at 540 nm. The survival rates of the cells were expressed as % concentration values in comparison with the control group.

calvaria = assay: Cytotoxicity test (MTT), calvaria; type: cell-based; conditions: 10^−6 M, cultured for 72 hrs, in comparison with the control group
Method: as §1, §2

HOS = assay: Cytotoxicity test (MTT), HOS; type: cell-based; conditions: 10^−6 M, cultured for 72 hrs, in comparison with the control group
Method: as §1, §2

[2] = 1 μm, 7 days co-culture, TRAP-positive osteoclasts with 3 or more nuclei, relative to negative controls

| Compound | inhibition at 1 µM [1] | Cell survival rate (MC3T3-E1) | Cell survival rate (calvaria) | Cell survival rate (HOS) | inhibition at 1 µM [1, 2] |
| --- | --- | --- | --- | --- | --- |
| Cc1nc(-c2ccc(OCCCCCOc3ccc(C(=N)NO)cc3)cc2)c(CN2CCSCC2)s1 [Example 10, N-hydroxy-4-{5-[4-(2-methyl-5-thiomorpholin-4-ylmethyl-thiazol-4-yl)-phenoxy]-pentyloxy}-benzamidine] | 92.9% | 93.4% | 94.5% | 101% |  |
| Cc1nc(-c2ccc(OCCCCCOc3ccc(C(=N)NO)cc3)cc2)c(CNCCN2CCOCC2)s1 [Example 17, N-hydroxy-4-[5-(4-{2-methyl-5-[(2-morpholin-4-yl-ethylamino)-methyl]-thiazol-4-yl}-phenoxy)-pentyloxy]-benzamidine] | 100% | 103% | 93% | 99% |  |
| N=C(NO)c1ccc(OCCCCCOc2ccc(-c3nc(N4CCOCC4)sc3CN3CCOCC3)cc2)cc1 [Example 51, N-hydroxy-4-{5-[4-(2-morpholin-4-yl-5-morpholin-4-ylmethyl-thiazol-4-yl)-phenoxy]-pentyloxy}-benzamidine] |  | 88% | 102% | 91% | 95% |
| CN(C)c1sc(-c2ccccc2)nc1-c1ccc(OCCCCCOc2ccc(C(=N)NO)cc2)cc1 [Example 42, N-hydroxy-4-{5-[4-(5-dimethylamino-2-phenyl-thiazol-4-yl)-phenoxy]-pentyloxy}-benzamidine] |  | 91% | 98% | 100% | 49% |
| CNc1sc(C)nc1-c1ccc(OCCCCCOc2ccc(C(=N)NO)cc2)cc1 [Example 37, N-hydroxy-4-{5-[4-(2-methyl-5-methylamino-thiazol-4-yl)-phenoxy]-pentyloxy}-benzamidine] |  | 94.3% | 92.5% | 105.3% | 83.3% |
| Cc1nc(-c2ccc(OCCCCCOc3ccc(C(=N)NO)cc3)cc2)c(N)s1 [Example 46, N-hydroxy-4-{5-[4-(5-amino-2-methyl-thiazol-4-yl)-phenoxy]-pentyloxy}-benzamidine] |  | 90% | 95% | 106% | 88% |
| COCCNCc1sc(N(C)CCN2CCOCC2)nc1-c1ccc(OCCCCCOc2ccc(C(=N)NO)cc2)cc1 [Example 33, N-hydroxy-4-[5-(4-{5-[(2-methoxy-ethylamino)-methyl]-2-[methyl-(2-morpholin-4-yl-ethyl)-amino]-thiazol-4-yl}-phenoxy)-pentyloxy]-benzamidine] | 100% | 104% | 94% | 110% |  |
| N=C(NO)c1ccc(OCCCCCOc2ccc(-c3nc(N4CCCCC4)sc3N3CCOCC3)cc2)cc1 [Example 52, N-hydroxy-4-{5-[4-(5-morpholin-4-yl-2-piperidin-1-yl-thiazol-4-yl)-phenoxy]-pentyloxy}-benzamidine] |  | 94% | 97% | 97% | 91% |
| Cc1nc(-c2ccc(OCCCCCOc3ccc(C(=N)NO)cc3)cc2)c(NC(=O)c2ccncc2)s1 [Example 38, N-hydroxy-4-[5-(4-{2-methyl-5-[(pyridine-4-carbonyl)-amino]-thiazol-4-yl}-phenoxy)-pentyloxy]-benzamidine] |  | 100.0% | 94.6% | 117.6% | 78.6% |
| Cc1nc(-c2ccc(OCCCCCOc3ccc(C(=N)NO)cc3)cc2)c(NC(=O)c2cccnc2)s1 [Example 39, N-hydroxy-4-[5-(4-{2-methyl-5-[(pyridine-3-carbonyl)-amino]-thiazol-4-yl}-phenoxy)-pentyloxy]-benzamidine] |  | 95.0% | 86.3% | 92.1% | 65.5% |
| CN(CCN1CCOCC1)c1nc(-c2ccc(OCCCCCOc3ccc(C(=N)NO)cc3)cc2)c(CN2CCOCC2)s1 [Example 28, N-hydroxy-4-[5-(4-{2-[methyl-(2-morpholin-4-yl-ethyl)-amino]-5-morpholin-4-ylmethyl-thiazol-4-yl}-phenoxy)-pentyloxy]-benzamidine] |  | 11% | 104% | 114% | 100% |
| Cc1nc(-c2ccc(OCCCCCOc3ccc(C(=N)NO)cc3)cc2)c(CNC(C)(C)C)s1 [Example 15, N-hydroxy-4-(5-{4-[5-(tert-butylamino-methyl)-2-methyl-thiazol-4-yl]-phenoxy}-pentyloxy)-benzamidine] | 100% | 99% | 105% | 98% |  |
| CN(CCO)c1nc(-c2ccc(OCCCCCOc3ccc(C(=N)NO)cc3)cc2)c(CN2CCOCC2)s1 [Example 25, N-hydroxy-4-[5-(4-{2-[(2-hydroxy-ethyl)-methyl-amino]-5-morpholin-4-ylmethyl-thiazol-4-yl}-phenoxy)-pentyloxy]-benzamidine] | 100% | 100% | 86% | 86% |  |
| CN1CCN(c2sc(N3CCOCC3)nc2-c2ccc(OCCCCCOc3ccc(C(=N)NO)cc3)cc2)CC1 [Example 4, N-hydroxy-4-(5-{4-[5-(4-methyl-piperazin-1-yl)-2-morpholin-4-yl-thiazol-4-yl]-phenoxy}-pentyloxy)-benzamidine] | 100% | 89% | 93% | 104% |  |
| N=C(NO)c1ccc(OCCCCCOc2ccc(-c3nc(-c4cccnc4)sc3N)cc2)cc1 [Example 47, N-hydroxy-4-{5-[4-(5-amino-2-pyridin-3-yl-thiazol-4-yl)-phenoxy]-pentyloxy}-benzamidine] |  | 97% | 99% | 112% | 86% |
| CCCCNCc1sc(C)nc1-c1ccc(OCCCCCOc2ccc(C(=N)NO)cc2)cc1 [Example 13, N-hydroxy-4-{5-[4-(5-butylaminomethyl-2-methyl-thiazol-4-yl)-phenoxy]-pentyloxy}-benzamidine] |  | 93% | 96% | 106% | 100% |
| Cc1nc(-c2ccc(OCCCCCOc3ccc(C(=N)NO)cc3)cc2)c(-n2cncn2)s1 [Example 44, N-hydroxy-4-{5-[4-(2-methyl-5-[1,2,4]triazol-1-yl-thiazol-4-yl)-phenoxy]-pentyloxy}-benzamidine] |  |  |  |  | 68% |
